Assay: xn = mol fraction of the nth substance listed
Conditions: 101 kPa, Liquid; for viscosity: Concentric cylinders viscometry; for mass density: Vibrating tube method

CC(O)CN (stereo not given) [1-amino-2-propanol] + CCC(C)O
Conditions	mass density [kg/m3]	viscosity [mPa·s]
288.15 K, x1 = 0.1003	823.697	5.068
288.15 K, x1 = 0.2005	837.759	5.97
288.15 K, x1 = 0.3	852.257	7.261
288.15 K, x1 = 0.3999	867.392	9.219
288.15 K, x1 = 0.5	882.695	11.68
288.15 K, x1 = 0.6001	898.243	14.95
288.15 K, x1 = 0.7	914.159	19.39
288.15 K, x1 = 0.8	930.494	25.16
288.15 K, x1 = 0.8999	947.198	32.94
288.15 K, x1 = 1	964.544	43.7
293.15 K, x1 = 0.1003	819.706	4.16
293.15 K, x1 = 0.2005	833.763	4.888
293.15 K, x1 = 0.3	848.265	5.949
293.15 K, x1 = 0.3999	863.403	7.373
293.15 K, x1 = 0.5	878.701	9.189
293.15 K, x1 = 0.6001	894.252	11.6
293.15 K, x1 = 0.7	910.183	14.8
293.15 K, x1 = 0.8	926.524	18.77
293.15 K, x1 = 0.8999	943.272	24.3
293.15 K, x1 = 1	960.598	31.68
298.15 K, x1 = 0.1003	815.665	3.45
298.15 K, x1 = 0.2005	829.72	4.048
298.15 K, x1 = 0.3	844.235	4.884
298.15 K, x1 = 0.3999	859.38	5.96
298.15 K, x1 = 0.5	874.691	7.338
298.15 K, x1 = 0.6001	890.255	9.121
298.15 K, x1 = 0.7	906.21	11.45
298.15 K, x1 = 0.8	922.526	14.41
298.15 K, x1 = 0.8999	939.29	18.35
298.15 K, x1 = 1	956.618	23.54
303.15 K, x1 = 0.1003	811.527	2.889
303.15 K, x1 = 0.2005	825.623	3.378
303.15 K, x1 = 0.3	840.158	4.059
303.15 K, x1 = 0.3999	855.316	4.898
303.15 K, x1 = 0.5	870.629	5.963
303.15 K, x1 = 0.6001	886.197	7.316
303.15 K, x1 = 0.7	902.141	9.136
303.15 K, x1 = 0.8	918.502	11.31
303.15 K, x1 = 0.8999	935.275	14.16
303.15 K, x1 = 1	952.612	17.89
308.15 K, x1 = 0.1003	807.298	2.444
308.15 K, x1 = 0.2005	821.466	2.86
308.15 K, x1 = 0.3	836.03	3.407
308.15 K, x1 = 0.3999	851.209	4.08
308.15 K, x1 = 0.5	866.532	4.929
308.15 K, x1 = 0.6001	882.111	5.962
308.15 K, x1 = 0.7	898.074	7.358
308.15 K, x1 = 0.8	914.445	9.005
308.15 K, x1 = 0.8999	931.229	11.12
308.15 K, x1 = 1	948.577	13.88
313.15 K, x1 = 0.1003	803.008	2.083
313.15 K, x1 = 0.2005	817.246	2.436
313.15 K, x1 = 0.3	831.847	2.887
313.15 K, x1 = 0.3999	847.055	3.435
313.15 K, x1 = 0.5	862.397	4.114
313.15 K, x1 = 0.6001	877.993	4.924
313.15 K, x1 = 0.7	893.97	6.014
313.15 K, x1 = 0.8	910.355	7.28
313.15 K, x1 = 0.8999	927.181	8.894
313.15 K, x1 = 1	944.515	10.96
318.15 K, x1 = 0.1003	798.619	1.795
318.15 K, x1 = 0.2005	812.957	2.094
318.15 K, x1 = 0.3	827.606	2.466
318.15 K, x1 = 0.3999	842.848	2.917
318.15 K, x1 = 0.5	858.232	3.47
318.15 K, x1 = 0.6001	873.856	4.113
318.15 K, x1 = 0.7	889.829	4.982
318.15 K, x1 = 0.8	906.227	5.972
318.15 K, x1 = 0.8999	923.11	7.219
318.15 K, x1 = 1	940.423	8.798
323.15 K, x1 = 0.1003	794.161	1.556
323.15 K, x1 = 0.2005	808.592	1.814
323.15 K, x1 = 0.3	823.3	2.124
323.15 K, x1 = 0.3999	838.586	2.499
323.15 K, x1 = 0.5	853.992	2.954
323.15 K, x1 = 0.6001	869.642	3.477
323.15 K, x1 = 0.7	885.646	4.164
323.15 K, x1 = 0.8	902.064	4.955
323.15 K, x1 = 0.8999	918.943	5.938
323.15 K, x1 = 1	936.293	7.166
328.15 K, x1 = 0.1003	789.608	1.358
328.15 K, x1 = 0.2005	804.15	1.576
328.15 K, x1 = 0.3	818.925	1.845
328.15 K, x1 = 0.3999	834.264	2.154
328.15 K, x1 = 0.5	849.702	2.529
328.15 K, x1 = 0.6001	865.379	2.969
328.15 K, x1 = 0.7	881.417	3.521
328.15 K, x1 = 0.8	897.859	4.163
328.15 K, x1 = 0.8999	914.764	4.947
328.15 K, x1 = 1	932.13	5.915
333.15 K, x1 = 0.1003	784.956	1.211
333.15 K, x1 = 0.2005	799.616	1.398
333.15 K, x1 = 0.3	814.474	1.637
333.15 K, x1 = 0.3999	829.873	1.897
333.15 K, x1 = 0.5	845.357	2.212
333.15 K, x1 = 0.6001	861.071	2.59
333.15 K, x1 = 0.7	877.143	3.042
333.15 K, x1 = 0.8	893.609	3.571
333.15 K, x1 = 0.8999	910.537	4.21
333.15 K, x1 = 1	927.93	4.986

From the NIST ThermoML archive (doi:10.1021/je401036f)
